According to patent US10519169B2, “3-(1H-pyrrolo[2,3-C]pyridin-2-yl)-1 H-pyrazolo[4,3-B]pyridines and therapeutic uses thereof” (Samumed, LLC, priority 2015, dated 2019):
pEC50: −log10 of the molar value.

Legend:
Assay type in all cases: cell-based
[1] = tested on: Wnt activity (Sp5-Luc reporter, TCF/LEF binding sites) in SW480 colon carcinoma cells; experiment: Wnt activity screening assay, Sp5-Luc reporter gene in SW480 cells; conditions: Homo sapiens; for pEC50: overnight incubation; for inhibition at 10 µM: given for EC50 >10 μM, read-out: percent inhibition at 10 μM
Outline: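 Wnt-driven firefly luciferase in SW480 colon carcinoma cells reports pathway activity after overnight compound exposure (10 μM top concentration, 3-fold steps). Signal is normalized to DMSO controls.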

SW480 colon cancer cells = experiment: Cell viability assay (CellTiter-Blue), SW480 cells; conditions: Homo sapiens, 96 h, four days, CellTiter-Blue
Outline: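 SW480 cells (~2×10^3/well) exposed to compound for four days at 37 °C/5% CO2, 1:3 8-point dilutions […]. Viability read by CellTiter-Blue resazurin reduction (~3 h, Ex 560/Em 590 nm); EC50 by non-linear regression, with % inhibition at 10 μM given when EC50 >10 μM.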

[2] = tested on: primary human mesenchymal stem cells (hMSCs); experiment: Chondrogenesis induction in hMSCs (chondrogenic nodules); conditions: 144 h, 6 days; for EC50: concentration required to induce 50% levels of chondrogenesis vs TGF-β3, read-out: Conc (nM) of 50% TGF-β3 activity; for Emax: nodules, relative to TGF-β3 positive control (10 ng/mL), read-out: Max. Activity as % TGF-β3 activity
Description: Representative compounds were screened using primary human mesenchymal stem cells (hMSCs) to determine their ability to induce chondrogenesis (process by which cartilage is developed).
Primary human mesenchymal stem cells (hMSCs) were purchased from Lonza (Walkersville, Md.) and expanded in Mesenchymal Stem Cell Growth Media (Lonza). Cells between passage 3 and 6 were used for the experiments.
Each compound was dissolved in DMSO as a 10 mM stock and used to prepare compound source plates. Serial dilution (1:3, 6-point dose-response curves from 2700 nM to 10 nM) and compound transfer was performed using the ECHO 550 (Labcyte, Sunnyvale, Calif.) into 96-well clear bottom assay plates (Greiner Bio-One) with appropriate DMSO backfill for a final DMSO concentration of 0.03%. hMSCs were plated at 20,000 cells/well in 250 μL/well Incomplete Chondrogenic Induction Medium (Lonza; DMEM, dexamethasone, ascorbate, insulin-transferrin-selenium [ITS supplement], gentamycin-amphotericin [GA-1000], sodium pyruvate, proline and L-glutamine). TGF-03 (10 ng/mL) was used as a positive control for differentiation while negative control wells were treated with 75 nL DMSO for normalization and calculating EC50 values. Cells were incubated at 37° C. and 5% CO2 for 6 days. To image chondrogenic nodules, the cells were fixed using 4% formaldehyde (Electron Microscopy Sciences), and stained with 2 μg/mL Rhodamine B (Sigma-Aldrich) and 20 μM Nile Red (Sigma-Aldrich) [Johnson K., et. al, A Stem Cell-Based Approach to Cartilage Repair, Science, (2012), 336(6082), 717-721]. The nodules imaged (4 images per well at 4× magnification) by excitation at 531 nm and emission at 625 nm and quantified using the CellInsight CX5 (Thermo Scientific). Number of nodules in each well was normalized to the average of 3 DMSO treated wells on the same plate using Excel (Microsoft Inc.). The normalized averages (fold change over DMSO) of 3 replicate wells for each compound concentration were calculated. Due to solubility limitations of some of the compounds, curve fitting was incomplete leading to inaccurate EC50 determinations.
Using TGF-β3 as a positive control, the concentration of representative compounds required to induce 50% levels of chondrogenesis is reported. In addition, the maximum activity of each compound and the respective dose that each compound reached maximum chondrogenesis activity is reported.

Row | Structure (SMILES) | pEC50 [1] | pEC50 (SW480 colon cancer cells) | EC50 [2] [nM] | Emax [2] [%] | inhibition at 10 µM [1] [%]
1 | O=C(Nc1cncc(-c2ccc3[nH]nc(-c4cc5ccncc5[nH]4)c3n2)c1)C1CCCC1 [Compound 274, N-(5-(3-(1H-Pyrrolo[2,3-c]pyridin-2-yl)-1H-pyrazolo[4,3-b]pyridin-5-yl)pyridin-3-yl)cyclopentanecarboxamide] | 5.58 | 5.51 | 30 | 50 | 
2 | Fc1cccc(-c2cncc3[nH]c(-c4n[nH]c5ccc(-c6cccnc6)nc45)cc23)c1 [Compound 4, 3-(4-(3-Fluorophenyl)-1H-pyrrolo[2,3-c]pyridin-2-yl)-5-(pyridin-3-yl)-1H-pyrazolo[4,3-b]pyridine] | 6.59 | 6.32 | 30 | 92 | 
3 | Cc1ccncc1-c1ccc2[nH]nc(-c3cc4c(-c5cccnc5)cncc4[nH]3)c2n1 [Compound 89, 5-(4-Methylpyridin-3-yl)-3-(4-(pyridin-3-yl)-1H-pyrrolo[2,3-c]pyridin-2-yl)-1H-pyrazolo[4,3-b]pyridine] | < 5.00 | 5.05 | 10 | 149 | 35.4
4 | Cc1ccncc1-c1ccc2[nH]nc(-c3cc4c(-c5ccc(F)cc5)cncc4[nH]3)c2n1 [Compound 33, 3-(4-(4-Fluorophenyl)-1H-pyrrolo[2,3-c]pyridin-2-yl)-5-(4-methylpyridin-3-yl)-1H-pyrazolo[4,3-b]pyridine] | < 5.00 | 5.73 |  | 28 | 21.5
5 | FC1(F)CCN(Cc2cncc(-c3ccc4[nH]nc(-c5cc6c(-c7cccnc7)cncc6[nH]5)c4n3)c2)C1 [Compound 110, 5-(5-((3,3-Difluoropyrrolidin-1-yl)methyl)pyridin-3-yl)-3-(4-(pyridin-3-yl)-1H-pyrrolo[2,3-c]pyridin-2-yl)-1H-pyrazolo[4,3-b]pyridine] | 5.41 | 5.31 |  | 23 | 

The next lines start with results.

Row | pEC50 [1] | pEC50 (SW480 colon cancer cells) | EC50 [2] [nM] | Structure (SMILES) | Emax [2] [%] | inhibition at 10 µM [1] [%]
6 | 5.88 | 5.71 | 10 | CS(=O)(=O)NCc1cc(F)cc(-c2cncc3[nH]c(-c4n[nH]c5ccc(-c6cncc(CN7CCCCC7)c6)nc45)cc23)c1 [Compound 491, N-(3-Fluoro-5-(2-(5-(5-(piperidin-1-ylmethyl)pyridin-3-yl)-1H-pyrazolo[4,3-b]pyridin-3-yl)-1H-pyrrolo[2,3-c]pyridin-4-yl)benzyl)methanesulfonamide] | 83 | 
7 | 5.92 | 5.54 |  | Fc1ccccc1-c1cncc2[nH]c(-c3n[nH]c4ccc(-c5cn[nH]c5)nc34)cc12 [Compound 539, 3-(4-(2-Fluorophenyl)-1H-pyrrolo[2,3-c]pyridin-2-yl)-5-(1H-pyrazol-4-yl)-1H-pyrazolo[4,3-b]pyridine] | 40 | 
8 | 6.01 | 5.56 | 10 | Cc1ccncc1-c1ccc2[nH]nc(-c3cc4c(-c5cc(F)cc(CNS(C)(=O)=O)c5)cncc4[nH]3)c2n1 [Compound 481, N-(3-Fluoro-5-(2-(5-(4-methylpyridin-3-yl)-1H-pyrazolo[4,3-b]pyridin-3-yl)-1H-pyrrolo[2,3-c]pyridin-4-yl)benzyl)methanesulfonamide] | 87 | 
